Ki data for five molecules are collected here from ChEMBL document CHEMBL2417473, “The importance of hydrogen bonding and aromatic stacking to the affinity and efficacy of cannabinoid receptor CB2 antagonist, 5-(4-chloro-3-methylphenyl)-1-[(4-methylphenyl)methyl]-N-[(1S,2S,4R)-1,3,3-trimethylbicyclo[2.2.1]hept-2-yl]-1H-pyrazole-3-carboxamide (SR144528)” (J Med Chem, 2013).

Chain of Cannabinoid receptor 2 (P34972 whole entry): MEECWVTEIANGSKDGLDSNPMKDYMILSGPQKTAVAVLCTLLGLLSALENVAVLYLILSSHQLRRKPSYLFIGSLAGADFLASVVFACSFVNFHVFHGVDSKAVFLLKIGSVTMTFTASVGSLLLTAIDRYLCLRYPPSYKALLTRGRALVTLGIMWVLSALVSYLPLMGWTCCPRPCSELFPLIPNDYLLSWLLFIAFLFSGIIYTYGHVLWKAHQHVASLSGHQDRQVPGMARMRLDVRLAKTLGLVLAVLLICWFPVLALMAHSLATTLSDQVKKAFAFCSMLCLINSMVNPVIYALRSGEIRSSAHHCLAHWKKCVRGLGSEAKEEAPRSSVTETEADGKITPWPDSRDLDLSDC

The assay has as its target Cannabinoid receptor 2 (Homo sapiens, UniProt P34972). Description: Displacement of [3H]CP-55,940 from human CB2 receptor after 1 hr by competitive binding assay.
Usually Ki stands for a dissociation constant, usually derived from enzyme kinetics or from competition with a known ligand. A lower Ki goes with a stronger hold on the target. As for `Cc1ccc(Cn2nc(C(=O)N[C@@H]3C[C@@H]4CC[C@@]3(C)C4(C)C)cc2-c2ccc(Cl)c(C)c2)cc1`, the affinity, expressed as Ki, was 29.1 nM. For `Cc1ccc(Cn2cc(/C=C/[C@@H]3C(C)(C)[C@@H]4CC[C@@]3(C)C4)cc2-c2ccc(Cl)c(C)c2)cc1` the value was 1220 nM; for `Cc1ccc(Cn2nc(/C=C/[C@@H]3C(C)(C)[C@@H]4CC[C@@]3(C)C4)cc2-c2ccc(Cl)c(C)c2)cc1` (relative stereo), 527 nM. With `Cc1ccc(Cn2cc(C(=O)N[C@@H]3C(C)(C)[C@@H]4CC[C@@]3(C)C4)cc2-c2ccc(Cl)c(C)c2)cc1` (relative stereo) the figure was 15.3 nM; with `Cc1cc(-c2cc(C(=O)N[C@@H]3C(C)(C)[C@@H]4CC[C@@]3(C)C4)nn2-c2ccccc2)ccc1Cl`, 94.2 nM.
